Assay results as given in US8722670B2, “Selective NR2B antagonists” (Bristol-Myers Squibb Company, priority 2011, dated 2014).
pIC50: −log10 of the molar value. Read-outs that look alike come from different tables or passages of the source.

Target: T1, hNR2B (Homo sapiens, UniProt Q05586+Q13224)
T1 construct: expressed in transfected cells; host or cells: Xenopus laevis oocytes, cRNA-injected
Assay: Electrophysiology NMDA receptor experiments: two electrode voltage-clamp in Xenopus laevis oocytes, hNR2B IC50
Assay type: cell-based
Conditions: 50 μM glutamate, 30 μM glycine

[1] = hNR2B activity class, read-out: Activity
[2] = voltage clamp -40 mV, read-out: hNR2B IC50

T1 sequence (Q13224 27-1484, other chains not shown): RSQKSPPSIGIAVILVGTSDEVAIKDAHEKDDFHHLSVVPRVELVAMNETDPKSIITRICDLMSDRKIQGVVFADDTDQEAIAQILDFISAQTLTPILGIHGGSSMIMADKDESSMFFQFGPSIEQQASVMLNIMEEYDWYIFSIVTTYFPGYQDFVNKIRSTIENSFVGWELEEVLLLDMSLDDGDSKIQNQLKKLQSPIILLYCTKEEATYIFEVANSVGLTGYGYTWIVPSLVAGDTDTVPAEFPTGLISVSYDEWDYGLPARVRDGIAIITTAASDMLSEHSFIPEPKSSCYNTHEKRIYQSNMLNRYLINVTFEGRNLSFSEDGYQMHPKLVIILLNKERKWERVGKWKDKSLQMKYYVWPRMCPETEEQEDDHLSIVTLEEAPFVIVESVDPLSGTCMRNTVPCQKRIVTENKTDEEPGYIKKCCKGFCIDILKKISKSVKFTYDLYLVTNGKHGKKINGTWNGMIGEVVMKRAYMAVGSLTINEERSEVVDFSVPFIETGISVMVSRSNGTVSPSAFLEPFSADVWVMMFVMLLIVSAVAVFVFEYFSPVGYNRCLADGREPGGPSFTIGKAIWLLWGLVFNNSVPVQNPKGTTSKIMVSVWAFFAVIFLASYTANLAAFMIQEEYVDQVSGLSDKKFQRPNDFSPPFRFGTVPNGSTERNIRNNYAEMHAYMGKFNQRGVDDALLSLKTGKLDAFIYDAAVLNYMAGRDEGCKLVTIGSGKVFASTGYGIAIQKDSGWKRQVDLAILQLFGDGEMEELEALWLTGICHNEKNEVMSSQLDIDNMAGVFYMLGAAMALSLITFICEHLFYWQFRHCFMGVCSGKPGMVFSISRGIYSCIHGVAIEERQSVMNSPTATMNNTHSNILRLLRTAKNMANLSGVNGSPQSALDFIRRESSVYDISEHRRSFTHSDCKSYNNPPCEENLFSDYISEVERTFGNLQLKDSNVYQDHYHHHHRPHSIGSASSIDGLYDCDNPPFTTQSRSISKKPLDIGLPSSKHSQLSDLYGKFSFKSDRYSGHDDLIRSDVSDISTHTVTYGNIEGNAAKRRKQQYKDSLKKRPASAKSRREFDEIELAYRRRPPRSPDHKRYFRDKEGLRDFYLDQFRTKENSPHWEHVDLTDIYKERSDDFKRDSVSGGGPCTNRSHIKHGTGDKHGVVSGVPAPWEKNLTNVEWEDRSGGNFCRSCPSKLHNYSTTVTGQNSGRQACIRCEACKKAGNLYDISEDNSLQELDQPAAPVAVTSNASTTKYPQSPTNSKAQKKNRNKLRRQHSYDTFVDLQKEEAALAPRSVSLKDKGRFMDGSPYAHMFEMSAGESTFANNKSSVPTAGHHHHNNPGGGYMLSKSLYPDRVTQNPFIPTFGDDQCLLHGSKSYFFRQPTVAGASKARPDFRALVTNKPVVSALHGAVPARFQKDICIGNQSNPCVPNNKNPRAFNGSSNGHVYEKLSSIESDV

Row | Structure (SMILES) | pIC50 [1] | pIC50 [2]
1 | Oc1ccc(OCc2nnc(NCc3ccc(Cl)c(Cl)c3)o2)cc1 [Example 114] | > 6.70 | 
2 | Oc1ccc(OCc2nnc(Nc3ccc(Cl)c(Cl)c3)o2)cc1 [Example 115] | > 6.70 | 
3 | Oc1cccc(OCc2nnc(Nc3ccc(Cl)c(Cl)c3)o2)c1 [Example 116] | 5.00 to 6.00 | 
4 | Oc1ccc(OCc2nnc(NCc3ccc(Cl)c(Cl)c3)o2)nn1 [Example 117] | < 5.00 | 
5 | Oc1ccc(OCc2nnc(Nc3ccc(Cl)c(Cl)c3)o2)nn1 [Example 118] | 5.00 to 6.00 | 
6 | Oc1c(F)cc(OCc2nnc(Nc3ccc(Cl)c(Cl)c3)o2)cc1F [Example 119] | 6.00 to 6.70 | 
7 | O=c1cnc2cc(OCc3nnc(Nc4ccc(C(F)(F)F)cc4)o3)ccc2[nH]1 [Example 124] | 5.00 to 6.00 | 
8 | O=C1COc2cc(OCc3nnc(Nc4ccc(OC(F)(F)F)cc4)o3)ccc2N1 [Example 126] | 6.00 to 6.70 | 
9 | Oc1ccc(CCc2nnc(NCc3ccc(Cl)c(Cl)c3)o2)cc1 [Example 128, 4-(2-(5-(3,4-dichlorobenzylamino)-1,3,4-oxadiazol-2-yl)ethyl)phenol] |  | 7.21
10 | O=c1ccc2cc(CCc3nnc(Nc4ccc(OC(F)(F)F)c(Cl)c4)o3)ccc2[nH]1 [Example 137] | > 6.70 | 
11 | O=c1ccc2cc(CCc3nnc(Nc4ccc(C(F)(F)F)cc4)o3)ccc2[nH]1 [Example 138] | > 6.70 | 
12 | FC(F)Oc1ccc(Nc2nnc(CCc3ccc4[nH]nc(C(F)(F)F)c4c3)o2)cc1Cl [Example 142] |  | 5.33
13 | FC(F)(F)c1ccc(Nc2nnc(CCc3ccc4[nH]ncc4c3)o2)cc1 [Example 144] | > 6.70 | 
14 | Oc1cccc(Cc2nnc(Nc3ccc(Cl)c(Cl)c3)o2)c1 [Example 147] | 5.00 to 6.00 | 
15 | Oc1cccc(Cc2nnc(NCc3ccc(Cl)c(Cl)c3)o2)c1 [Example 148] | < 5.00 | 
16 | Oc1ccc(Cc2nnc(Nc3ccc(Cl)c(Cl)c3)o2)cc1 [Example 149] | 5.00 to 6.00 | 
17 | Oc1ccc(Cc2nnc(NCc3ccc(Cl)c(Cl)c3)o2)cc1 [Example 150] | 5.00 to 6.00 | 
18 | Oc1ccc(CCc2nnc(Nc3ccc(C(F)(F)F)cc3)o2)cc1 [Example 152] |  | 7.32

Row | Structure (SMILES) | pIC50 [1] | pIC50 [2]
19 | Oc1ccc(CCc2nnc(Nc3ccc(OC(F)(F)F)cc3)o2)cc1 [Example 153] | > 6.70 | 
20 | O=c1ccc2cc(C3CC3c3nnc(Nc4ccc(C(F)(F)F)cc4)o3)ccc2[nH]1 (stereo not drawn) [Example 154, 6-(2-(5-((4-(trifluoromethyl)phenyl)amino)-1,3,4-oxadiazol-2-yl)cyclopropyl)quinolin-2(1H)-one] |  | 8.02
21 | O=c1ccc2cc(C3CC3c3nnc(Nc4ccc(OC(F)F)c(Cl)c4)o3)ccc2[nH]1 (stereo not drawn) [Example 155] | > 6.70 | 
22 | O=c1ccc2cc(OCc3nc(Nc4ccc(C(F)(F)F)c(F)c4)no3)ccc2[nH]1 [Example 157] | < 5.00 | 
23 | O=c1ccc2cc(OCc3nc(Nc4ccc(F)cc4)no3)ccc2[nH]1 [Example 158] | < 5.00 | 
24 | O=c1ccc2cc(OCc3nc(Nc4cccc(Cl)c4)no3)ccc2[nH]1 [Example 161] | < 5.00 | 
25 | Cc1ccc(Nc2noc(COc3ccc4[nH]c(=O)ccc4c3)n2)cc1 [Example 165] | 5.00 to 6.00 | 
26 | COc1ccc(Nc2noc(COc3ccc4[nH]c(=O)ccc4c3)n2)cc1F [Example 166] | > 6.70 | 
27 | O=c1ccc2cc(OCc3nc(Nc4ccc(C(F)(F)F)cc4)no3)ccc2[nH]1 [Example 181] |  | 6.84
28 | O=c1ccc2cc(OCc3nc(Nc4ccc(Cl)cc4)no3)ccc2[nH]1 [Example 183] | 5.00 to 6.00 | 
29 | Oc1ccc(OCc2nc(Nc3ccc(C(F)(F)F)cc3)no2)cc1 [Example 185] | 5.00 to 6.00 | 
30 | FC(F)(F)c1ccc(Nc2noc(COc3ccc4[nH]ncc4c3)n2)cc1 [Example 188] | < 5.00 | 
31 | Clc1ccc(CNc2noc(COc3ccc4[nH]ncc4c3)n2)cc1 [Example 189] | 5.00 to 6.00 | 
32 | O=c1ccc2cc(OCc3nc(Nc4ccc(OC(F)F)cc4)no3)ccc2[nH]1 [Example 190] |  | 6.77
33 | O=c1ccc2cc(OCc3nc(Nc4ccc(OC(F)F)c(Cl)c4)no3)ccc2[nH]1 [Example 191] | > 6.70 | 
34 | Oc1ccc(CCc2nc(NCc3ccc(Cl)cc3)no2)cc1 [Example 200] |  | 6.49
35 | FC(F)Oc1ccc(Nc2noc(CCNc3ncnc4[nH]ncc34)n2)cc1Cl [Example 207] | > 6.70 | 
36 | Oc1ccc(CCc2nc(Nc3ccc(C(F)(F)F)cc3)no2)cc1 [Example 223] | 6.00 to 6.70 | 

The next lines start with the values.

Row | pIC50 [1] | pIC50 [2] | Structure (SMILES)
37 | < 5.00 |  | Clc1ccc(CNc2nnc(COc3ccc4c(c3)CCCN4)o2)cc1Cl [Example 120]
38 | 5.00 to 6.00 |  | O=c1cnc2cc(OCc3nnc(Nc4ccc(Cl)c(Cl)c4)o3)ccc2[nH]1 [Example 123]
39 | 6.00 to 6.70 |  | O=C1COc2cc(OCc3nnc(Nc4ccc(Cl)c(Cl)c4)o3)ccc2N1 [Example 125]
40 | 6.00 to 6.70 |  | O=C1COc2cc(OCc3nnc(NCc4ccc(Cl)c(Cl)c4)o3)ccc2N1 [Example 127]
41 | > 6.70 |  | O=C1CCc2cc(CCc3nnc(Nc4ccc(Cl)cc4)o3)ccc2N1 [Example 129]
42 | > 6.70 |  | O=C1CCc2cc(CCc3nnc(Nc4ccc(C(F)(F)F)cc4)o3)ccc2N1 [Example 130]
43 | > 6.70 |  | O=C1CCc2cc(CCc3nnc(Nc4ccc(Cl)c(Cl)c4)o3)ccc2N1 [Example 131]
44 | > 6.70 |  | O=C1CCc2cc(CCc3nnc(NCc4ccc(Cl)c(Cl)c4)o3)ccc2N1 [Example 132]
45 | > 6.70 |  | O=C1CCc2cc(CCc3nnc(Nc4ccc(OC(F)F)cc4)o3)ccc2N1 [Example 133]
46 | > 6.70 |  | O=C1CCc2cc(CCc3nnc(Nc4ccc(OC(F)(F)F)cc4)o3)ccc2N1 [Example 134]
47 | > 6.70 |  | O=C1CCc2cc(CCc3nnc(Nc4ccc(Cl)c(F)c4)o3)ccc2N1 [Example 135]
48 | > 6.70 |  | O=c1ccc2cc(CCc3nnc(Nc4ccc(Cl)c(Cl)c4)o3)ccc2[nH]1 [Example 136]
49 | < 5.00 |  | FC(F)(F)c1n[nH]c2ccc(CCc3nnc(Nc4ccc(Cl)c(Cl)c4)o3)cc12 [Example 143]
50 | 5.00 to 6.00 |  | Clc1ccc(Nc2nnc(CCCc3ccc4[nH]ncc4c3)o2)cc1Cl [Example 145]
51 |  | 6.64 | Fc1cc(Nc2nnc(CCCc3ccc4[nH]ncc4c3)o2)ccc1Cl [Example 146]
52 | > 6.70 |  | Oc1ccc(CCc2nnc(Nc3ccc(Cl)c(Cl)c3)o2)cc1 [Example 151]
53 |  | 6.41 | O=C1CCc2cc(OCc3nc(Nc4ccc(Cl)c(Cl)c4)no3)ccc2N1 [Example 156, 6-((3-(3,4-dichlorophenylamino)-1,2,4-oxadiazol-5-yl)methoxy)-3,4-dihydroquinolin-2(1H)-one]
54 | 5.00 to 6.00 |  | O=c1ccc2cc(OCc3nc(Nc4cc(Cl)cc(Cl)c4)no3)ccc2[nH]1 [Example 164]
55 |  | 6.52 | COc1ccc(Nc2noc(COc3ccc4[nH]c(=O)ccc4c3)n2)cc1Cl [Example 167]
56 | 6.00 to 6.70 |  | O=c1ccc2cc(OCc3nc(Nc4ccc(Cl)c(Cl)c4)no3)ccc2[nH]1 [Example 178]
57 | 6.00 to 6.70 |  | O=C1CCc2cc(OCc3nc(Nc4ccc(OC(F)(F)F)cc4)no3)ccc2N1 [Example 179]
58 | 5.00 to 6.00 |  | O=C1CCc2cc(OCc3nc(Nc4ccc(C(F)(F)F)cc4)no3)ccc2N1 [Example 180]
59 | 5.00 to 6.00 |  | O=C1CCc2cc(OCc3nc(Nc4ccc(Cl)cc4)no3)ccc2N1 [Example 182]
60 | 5.00 to 6.00 |  | Oc1ccc(OCc2nc(Nc3ccc(Cl)c(Cl)c3)no2)cc1 [Example 184]

Row | pIC50 [1] | pIC50 [2] | Structure (SMILES)
61 | 6.00 to 6.70 |  | O=C1CCc2cc(OCc3nc(Nc4ccc(OC(F)F)cc4)no3)ccc2N1 [Example 186]
62 | < 5.00 |  | Clc1ccc(Nc2noc(COc3ccc4[nH]ncc4c3)n2)cc1Cl [Example 187]
63 | 5.00 to 6.00 |  | O=c1ccc2cc(OCc3nc(Nc4ccc(F)c(Cl)c4)no3)ccc2[nH]1 [Example 192]
64 |  | < 5.00 | O=C1CCc2cc(CCc3nc(Nc4ccc(Cl)c(Cl)c4)no3)ccc2N1 [Example 194, 6-(2-(3-(3,4-dichlorophenylamino)-1,2,4-oxadiazol-5-yl)ethyl)-3,4-dihydroquinolin-2(1H)-one]
65 | < 5.00 |  | FC(F)(F)Oc1ccc(Nc2noc(CCc3ccc4[nH]nc(C(F)(F)F)c4c3)n2)cc1 [Example 195]
66 | < 5.00 |  | FC(F)Oc1ccc(Nc2noc(CCc3ccc4[nH]nc(C(F)(F)F)c4c3)n2)cc1Cl [Example 197]
67 | 5.00 to 6.00 |  | Clc1ccc(Nc2noc(CCc3ccc4[nH]ncc4c3)n2)cc1Cl [Example 198]
68 | < 5.00 |  | O=C1CCc2cc(CCc3nc(Nc4ccc(Cl)c(Cl)c4)no3)ccc2N1 [Example 199]
69 |  | 6.33 | FC(F)Oc1ccc(Nc2noc(CCc3ccc4[nH]ncc4c3)n2)cc1 [Example 201]
70 | < 5.00 |  | Clc1ccc(Nc2noc(CCCc3ccc4[nH]ncc4c3)n2)cc1Cl [Example 202]
71 | < 5.00 |  | FC(F)(F)c1ccc(Nc2noc(CCCc3ccc4[nH]ncc4c3)n2)cc1 [Example 203]
72 | 6.00 to 6.70 |  | O=c1ccc2cc(CCc3nc(Nc4ccc(Cl)c(Cl)c4)no3)ccc2[nH]1 [Example 204]
73 | < 5.00 |  | FC(F)Oc1ccc(Nc2noc(CCc3ccc4[nH]ncc4c3)n2)cc1Cl [Example 205]
74 | 5.00 to 6.00 |  | FC(F)Oc1ccc(Nc2noc(CCCc3ccc4[nH]ncc4c3)n2)cc1Cl [Example 206]
75 |  | 7.96 | O=c1ccc2cc(CCc3nc(Nc4ccc(OC(F)F)c(Cl)c4)no3)ccc2[nH]1 [Example 208]
76 |  | 7.72 | Cc1ccc(Nc2noc(CCc3ccc4[nH]ncc4c3)n2)cc1F [Example 209]
77 | > 6.70 |  | Fc1cc(Nc2noc(CCc3ccc4[nH]ncc4c3)n2)ccc1OC(F)F [Example 210]
78 | > 6.70 |  | CCc1ccc(Nc2noc(CCc3ccc4[nH]ncc4c3)n2)cc1 [Example 211]
79 | 6.00 to 6.70 |  | CCc1ccc(Nc2noc(CCc3ccc4[nH]ncc4c3)n2)cc1Cl [Example 212]
80 | 5.00 to 6.00 |  | COc1ccc(Nc2noc(CCc3ccc4[nH]ncc4c3)n2)cc1C [Example 213]
81 | 6.00 to 6.70 |  | Cc1cc(Nc2noc(CCc3ccc4[nH]ncc4c3)n2)ccc1OC(F)F [Example 214]
82 | > 6.70 |  | CCc1ccc(Nc2noc(CCc3ccc4[nH]ncc4c3)n2)cc1F [Example 215]
83 | 6.00 to 6.70 |  | Fc1ccc(Nc2noc(CCc3ccc4[nH]ncc4c3)n2)cc1C(F)F [Example 216]
84 | > 6.70 |  | Oc1ccc(CCc2nc(Nc3ccc(OC(F)F)c(F)c3)no2)cc1 [Example 219]
